Source: patent US11453690B2, “Receptor inhibitor, pharmaceutical composition comprising same, and use thereof” (BEIJING TIDE PHARMACEUTICAL CO., LTD., priority 2018, dated 2022)

Each molecule was assayed against AT2 Receptor (AT2R) (Homo sapiens (Human), UniProt P50052) (assay: Measurement of inhibitory activity on AT2 receptor (Tag-lite HTRF, Tb-labeled AT2R cells, angiotensin receptor red agonist)). Settings: 1 h room temperature.
Chain of AT2 Receptor (AT2R) (P50052 whole entry): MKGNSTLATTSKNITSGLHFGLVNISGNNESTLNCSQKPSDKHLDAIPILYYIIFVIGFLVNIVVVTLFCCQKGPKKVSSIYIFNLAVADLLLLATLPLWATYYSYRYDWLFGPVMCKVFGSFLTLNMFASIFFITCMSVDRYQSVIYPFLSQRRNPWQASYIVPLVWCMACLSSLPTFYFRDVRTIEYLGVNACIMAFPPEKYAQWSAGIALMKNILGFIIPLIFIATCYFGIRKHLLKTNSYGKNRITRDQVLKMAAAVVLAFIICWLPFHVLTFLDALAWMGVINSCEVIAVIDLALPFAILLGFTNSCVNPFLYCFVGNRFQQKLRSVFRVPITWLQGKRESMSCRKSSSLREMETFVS
Assay type: binding
Protocol: Measurement of Inhibitory Activity on AT1 Receptor ([…])/AT2 Receptor (AT2R)
Through the following steps, the inhibitory activity of the compound on AT1R/AT2R (IC50 value) was determined:
1) An appropriate amount of 1×TLB (Tag-lite Buffer) was prepared and well mixed for use.
2) The compound was diluted by 10 times with ddH2O or DMSO. The compound was then dilute to 4 times of the working concentration with 1×TLB and mixed well for use.
3) 8600 nM Tag-lite angiotensin receptor red agonist was diluted to 12 nM (4×Kd) with 1×TLB.
4) 5 ml 1×TLB was taken into a 15 ml centrifuge tube.
5) After thawing 1 tube of Tb-labeled AT1R/AT2R cells in a 37° C. water bath, the cells were quickly transferred to the 1×TLB in step 4), mixed gently, and centrifuged at 1200 g for 5 minutes at room temperature.
6) The supernatant was aspirated gently, and the cells were resuspended and mixed in 2.7 ml 1×TLB, and then placed at room temperature until use.
7) 10 μl cells were added to all test wells, and 5 μl 4× working solution of the compound from step 2) was added to the corresponding test wells. 5 μl 4× Tag-lite angiotensin receptor red agonist well diluted in step 3) was added to all test wells.
8) After leaving the reaction plate at room temperature for 1 h, data were measured and analyzed using Envision HTRF Reader, and the half inhibitory concentration (IC50) of the compound on AT1R/AT2R was calculated with the GraphPad Prism four-parameter equation.
`O=C(O)[C@@H]1[C@H]2CC[C@@H](CN1C(=O)N(c1ccccc1)c1ccccc1)N2C(=O)N1CCC[C@@H]1c1cc(F)ccc1F` [Compound C141, (1R,2S,5S)-8-((R)-2-(2,5-difluorophenyl)pyrrolidine-1-carbonyl)-3-(diphenylcarbamoyl)-3,8-diazabicyclo [3.2.1]octane-2-carboxylic acid] was tested, and the IC50 was 7.99 nM. `O=C(O)[C@@H]1[C@H]2CC[C@@H](CN1C(=O)N(c1ccccc1)c1ccccc1)N2C(=O)N1CCC[C@H]1c1cc(F)ccc1F` [Compound C142, (1R,2S,5S)-8-((S)-2-(2,5-difluorophenyl)pyrrolidine-1-carbonyl)-3-(diphenylcarbamoyl)-3,8-diazabicyclo [3.2.1]octane-2-carboxylic acid] was tested, and the IC50 was 654 nM. Work on `CC(C)c1ccc(CN(C)C(=O)N2[C@H]3CC[C@@H]2[C@@H](C(=O)O)N(C(=O)N(c2ccccc2)c2ccccc2)C3)cc1` [Compound C214, (1R,2S,5S)-3-(diphenylcarbamoyl)-8-((4-isopropylbenzyl) (methyl)carbamoyl)-3,8-diazabicyclo [3.2.1]octane-2-carboxylic acid] yielded an IC50 of 11.3 nM. For `O=C(O)[C@@H]1[C@H]2CC[C@@H](CN1C(=O)N(c1ccccc1)c1ccccc1)N2C(=O)N(Cc1ccccc1)Cc1ccccc1` [Compound C133, (1R,2S,5S)-8-(dibenzylcarbamoyl)-3-(diphenylcarbamoyl)-3,8-diazabicyclo[3.2.1] octane-2-carboxylic acid], the IC50 was 243 nM. `O=C(NC1CC2CCC1C(C(=O)O)N2C(=O)C(c1ccccc1)c1ccccc1)c1ccccc1` (stereo in doubt) [Compound C286, (1S,3S,4R)-5-benzamido-2-(2,2-diphenylacetyl)-2-azabicyclo[2.2.2]octane-3-carboxylic acid] showed an IC50 of 760 nM. `CCN(Cc1ccc(C)s1)C(=O)N1[C@H]2CC[C@@H]1[C@@H](C(=O)O)N(C(=O)N(c1ccccc1)c1ccccc1)C2` [Compound C202, (1R,2S,5S)-3-(diphenylcarbamoyl)-8-(ethyl((5-methylthiophen-2-yl)methyl)carbamoyl)-3,8-diazabicyclo [3.2.1]octane-2-carboxylic acid] showed an IC50 of 3.87 nM. “(1R,2S,5S)-3- (2,2-diphenylacetyl)- 8-(((2-fluorobenzyl) oxy)carbonyl)- 3,8-diazabicyclo [3.2.1]octane-2- carboxylic acid [Compound C35]” gave an IC50 of 36.6 nM. With `CN(Cc1ccccc1)C(=O)N1[C@H]2CC[C@@H]1[C@@H](C(=O)O)N(C(=O)N(c1ccc(F)cc1)c1ccc(F)cc1)C2` [Compound C129, (1R,2S,5S)-8-(benzyl(methyl)carbamoyl)-3-(bis(4-fluorophenyl)carbamoyl)-3,8-diazabicyclo [3.2.1]octane-2-carboxylic acid] the IC50 was 148 nM. `CN(Cc1ccccc1)C(=O)N1[C@H]2CC[C@@H]1[C@@H](C(=O)O)N(C(=O)C(C)(c1ccccc1)c1ccccc1)C2` [Compound C173, (1R,2S,5S)-8-(benzyl(methyl)carbamoyl)-3-(2,2-diphenylpropionyl)-3,8-diazabicyclo [3.2.1]octane-2-carboxylic acid] showed an IC50 of 5.57 nM. Work on `O=C(O)[C@@H]1[C@H]2CC[C@@H](CN1C(=O)N(c1ccccc1)c1ccccc1)N2C(=O)N(Cc1cccs1)C1CC1` [Compound C200, (1R,2S,5S)-8-(cyclopropyl (thiophene-2-ylmethyl)carbamoyl)-3-(diphenylcarbamoyl)-3,8-diazabicyclo [3.2.1]octane-2-carboxylic acid] yielded an IC50 of 3.25 nM. `CCN(Cc1cccs1)C(=O)N1[C@H]2CC[C@@H]1[C@@H](C(=O)O)N(C(=O)N(c1ccccc1)c1ccccc1)C2` [Compound C201, (1R,2S,5S)-3-(diphenylcarbamoyl)-8-(ethyl(thiophene-2-ylmethyl)carbamoyl)-3,8-diazabicyclo [3.2.1]octane-2-carboxylic acid] was tested, and the IC50 was 18.4 nM. `CC(CC(=O)N1[C@H]2CC[C@@H]1[C@@H](C(=O)O)N(C(=O)C(c1ccccc1)c1ccccc1)C2)c1ccccc1` (stereo partly drawn) [Compound C223, (1R,2S,5S)-3-(2,2-diphenylacetyl)-8-(3-phenylbutyryl)-3,8-diazabicyclo [3.2.1]octane-2-carboxylic acid] was tested, and the IC50 was 7.87 nM. `O=C(O)[C@@H]1[C@H]2CC[C@@H](CN1C(=O)N(c1ccccc1)c1ccccc1)N2C(=O)N(Cc1ccccc1)CC1CC1` [Compound C154, (1R,2S,5S)-8-(benzyl (cyclopropylmethyl)carbamoyl)-3-(diphenylcarbamoyl)-3,8-diazabicyclo [3.2.1]octane-2-carboxylic acid] showed an IC50 of 19.8 nM. Work on `O=C(O)[C@@H]1[C@H]2CC[C@@H](CN1C(=O)N(c1ccccc1)c1ccccc1)N2C(=O)N(Cc1ccsc1)CC1CC1` [Compound C205, (1R,2S,5S)-8-((cyclopropylmethyl) (thiophene-3-ylmethyl)carbamoyl)-3-(diphenylcarbamoyl)-3,8-diazabicyclo [3.2.1]octane-2-carboxylic acid] yielded an IC50 of 42.8 nM. `O=C(O)[C@@H]1[C@H]2CC[C@@H](CN1C(=O)N(c1ccccc1)c1ccccc1)N2C(=O)N(c1ccccc1)c1ccccc1` [Compound C41, (1R,2S,5S)-3,8-bis (diphenylcarbamoyl)-3,8-diazabicyclo [3.2.1]octane-2-carboxylic acid] was tested, and the IC50 was 9.77 nM. `CN(Cc1ccccc1)C(=O)N1C[C@@H]2CC[C@H]([C@H]1C(=O)O)N2C(=O)C(c1ccccc1)c1ccccc1` [Compound C62, (1R,2S,5S)-3-(benzyl(methyl)carbamoyl)-8-(2,2-diphenylacetyl)-3,8-diazabicyclo[3.2.1]octane-2-carboxylic acid] gave an IC50 of 104 nM. Molecule `CC(Cc1ccccc1)C(=O)N1[C@H]2CC[C@@H]1[C@@H](C(=O)O)N(C(=O)C(c1ccccc1)c1ccccc1)C2` (stereo partly drawn) [Compound C230, (1R,2S,5S)-3-(2,2-diphenylacetyl)-8-(2-methyl-3-phenylpropionyl)-3,8-diazabicyclo [3.2.1]octane-2-carboxylic acid] has an IC50 of 50.2 nM. Work on `O=C(O)[C@@H]1[C@H]2CC[C@@H](CN1C(=O)N(c1ccccc1)c1ccccc1)N2C(=O)N(Cc1ccccc1)CC(F)(F)F` [Compound C128, (1R,2S,5S)-8-(benzyl(2,2,2-trifluoroethyl)carbamoyl)-3-(diphenylcarbamoyl)-3,8-diazabicyclo [3.2.1]octane-2-carboxylic acid] yielded an IC50 of 21.5 nM. With `CN(Cc1ccsc1)C(=O)N1[C@H]2CC[C@@H]1[C@@H](C(=O)O)N(C(=O)C(c1ccccc1)c1ccccc1)C2` [Compound C187, (1R,2S,5S)-3-(2,2-diphenylacetyl)-8-(methyl(thiophene-3-ylmethyl)carbamoyl)-3,8-diazabicyclo [3.2.1]octane-2-carboxylic acid] the IC50 was 3.75 nM. For `O=C(O)[C@@H]1[C@H]2CC[C@@H](CN1C(=O)N(c1ccccc1)c1ccccc1)N2C(=O)N1CCN(c2ccccc2)CC1` [Compound C132, (1R,2S,5S)-3-(diphenylcarbamoyl)-8-(4-phenylpiperazine-1-carbonyl)-3,8-diazabicyclo[3.2.1] octane-2-carboxylic acid], the IC50 was 482 nM. `CCN(Cc1sccc1C)C(=O)N1[C@H]2CC[C@@H]1[C@@H](C(=O)O)N(C(=O)N(c1ccccc1)c1ccccc1)C2` [Compound C272, (1R,2S,5S)-3-(diphenylcarbamoyl)-8-(ethyl((3-methylthiophen-2-yl)methyl)carbamoyl)-3,8-diazabicyclo [3.2.1]octane-2-carboxylic acid] gave an IC50 of 16.6 nM.
